Key:
Type in all cases: in vivo
Veronica persica [1] = assay: Post-emergence herbicidal action against VERPE; details: 20 g/ha, visual assessment about 3 weeks after treatment
Outline: (§1)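 Herbicidal effect was scored visually in percent after about 3 weeks in the greenhouse. Plants had been raised in sandy loam and treated post-emergence at the one-leaf stage with formulated compound at 600 to 800 l/ha water plus 0.2% wetting agent.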

Abutilon theophrasti [2] = assay: Post-emergence herbicidal action against ABUTH
Outline: as §1

Echinochloa crus-galli [3] = assay: Pre-emergence herbicidal action against ECHCG; details: visual score after 3 weeks vs untreated controls
Outline: (§2)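 Herbicidal effect was assessed 3 weeks after treatment by visual comparison with untreated controls, 100% denoting dead plants. Aqueous WP or EC preparations had been applied at 600 to 800 l/ha with 0.2% wetting agent to the soil covering freshly sown seeds.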

Alopecurus myosuroides [4] = assay: Post-emergence herbicidal action against ALOMY
Outline: as §1

Amaranthus retroflexus [5] = assay: Pre-emergence herbicidal action against AMARE; details: visual score after 3 weeks vs untreated controls
Outline: as §2

Matricaria inodora [6] = assay: Pre-emergence herbicidal action against MATIN; details: visual score after 3 weeks vs untreated controls
Outline: as §2

Lolium rigidum = assay: Pre-emergence herbicidal action against LOLRI; details: 80 g/ha
Outline: as §2

Amaranthus retroflexus [7] = assay: Post-emergence herbicidal action against AMARE; details: visual assessment about 3 weeks after treatment
Outline: as §1

Viola tricolor [8] = assay: Pre-emergence herbicidal action against VIOTR
Outline: as §2

Viola tricolor [9] = assay: Post-emergence herbicidal action against VIOTR
Outline: as §1

Avena fatua [10] = assay: Pre-emergence herbicidal action against AVEFA; details: visual score after 3 weeks vs untreated controls
Outline: as §2

Matricaria inodora [11] = assay: Post-emergence herbicidal action against MATIN; details: visual assessment about 3 weeks after treatment
Outline: as §1

Alopecurus myosuroides [12] = assay: Pre-emergence herbicidal action against ALOMY; details: 80 g/ha; visual score after 3 weeks vs untreated controls
Outline: as §2

Setaria viridis [13] = assay: Post-emergence herbicidal action against SETVI; details: 20 g/ha, visual assessment about 3 weeks after treatment
Outline: as §1

Abutilon theophrasti [14] = assay: Pre-emergence herbicidal action against ABUTH; details: visual score after 3 weeks vs untreated controls
Outline: as §2

Setaria viridis [15] = assay: Pre-emergence herbicidal action against SETVI
Outline: as §2

Echinochloa crus-galli [16] = assay: Post-emergence herbicidal action against ECHCG; details: visual assessment about 3 weeks after treatment
Outline: as §1

Pharbitis purpurea [17] = assay: Pre-emergence herbicidal action against PHBPU; details: visual score after 3 weeks vs untreated controls
Description: (§3) Seeds of monocotyledonous and dicotyledonous weed plants and crop plants are laid out in sandy loam soil in wood-fiber pots and covered with soil. The compounds of the invention, formulated in the form of wettable powders (WP) or as emulsion concentrates (EC), are then applied to the surface of the covering soil in the form of an aqueous suspension or emulsion at a water application rate equivalent to 600 to 800 l/ha, with addition of 0.2% wetting agent. After the treatment, the pots are placed in a greenhouse and kept under good growth conditions for the trial plants. The damage to the test plants is scored visually after a test period of 3 weeks by comparison with untreated controls (herbicidal activity in percent (%): 100% activity=the plants have died, 0% activity=like control plants). […] The tables below illustrate, in an illustrative manner, the post-emergence herbicidal action of the compounds of the invention, the herbicidal activity being stated in percent.

Pharbitis purpurea [18] = assay: Post-emergence herbicidal action against PHBPU; details: visual assessment about 3 weeks after treatment
Outline: as §1

Digitaria sanguinalis = assay: Pre-emergence herbicidal action against DIGSA
Outline: as §2

Veronica persica [19] = assay: Pre-emergence herbicidal action against VERPE
Outline: as §2

Polygonum convolvulus = assay: Pre-emergence herbicidal action against POLCO
Outline: as §2

Avena fatua [20] = assay: Post-emergence herbicidal action against AVEFA; details: visual assessment about 3 weeks after treatment
Outline: as §1

Stellaria media [21] = assay: Pre-emergence herbicidal action against STEME
Description: as §3

Cyperus esculentus = assay: Pre-emergence herbicidal action against CYPES; details: visual score after 3 weeks vs untreated controls
Description: as §3

Stellaria media [22] = assay: Post-emergence herbicidal action against STEME; details: visual assessment about 3 weeks after treatment
Description: Seeds of monocotyledonous and dicotyledonous weed and crop plants are laid out in sandy loam soil in wood-fiber pots, covered with soil and cultivated in a greenhouse under good growth conditions. 2 to 3 weeks after sowing, the test plants are treated at the one-leaf stage. The compounds of the invention, formulated in the form of wettable powders (WP) or as emulsion concentrates (EC), are then sprayed onto the green parts of the plants in the form of an aqueous suspension or emulsion at a water application rate equivalent to 600 to 800 l/ha, with addition of 0.2% wetting agent. After the test plants have been left to stand in the greenhouse under optimal growth conditions for about 3 weeks, the action of the preparations is assessed visually in comparison to untreated controls (herbicidal action in percent (%): 100% activity=the plants have died, 0% activity=like control plants). […] The tables below illustrate, in an illustrative manner, the post-emergence herbicidal action of the compounds of the invention, the herbicidal activity being stated in percent.

CCN(C(=O)c1c(C(F)F)ccc(C(=O)Nc2nnnn2C)c1Cl)C1CC1 [Example 1-167]
Post-emergence action against VERPE in % (Veronica persica [1]): 90% | Post-emergence action against ABUTH (Abutilon theophrasti [2]; 5 g/ha): 90% | Post-emergence action against ABUTH (Abutilon theophrasti [2]; 20 g/ha): 90% | Pre-emergence action against ECHCG (Echinochloa crus-galli [3]; 80 g/ha): 90% | Post-emergence action against ALOMY (Alopecurus myosuroides [4]; 5 g/ha): 90% | Post-emergence action against ALOMY (Alopecurus myosuroides [4]; 20 g/ha): 90% | Pre-emergence action against AMARE (Amaranthus retroflexus [5]; 20 g/ha): 100% | Pre-emergence action against AMARE (Amaranthus retroflexus [5]; 80 g/ha): 100% | Pre-emergence action against MATIN (Matricaria inodora [6]; 20 g/ha): 80% | Pre-emergence action against MATIN (Matricaria inodora [6]; 80 g/ha): 100% | Pre-emergence action against LOLRI (Lolium rigidum): 90% | Post-emergence action against AMARE in % (Amaranthus retroflexus [7]; 5 g/ha): 100% | Post-emergence action against AMARE in % (Amaranthus retroflexus [7]; 20 g/ha): 100% | Pre-emergence action against VIOTR (Viola tricolor [8]; 20 g/ha): 90% | Pre-emergence action against VIOTR (Viola tricolor [8]; 80 g/ha): 100% | Post-emergence action against VIOTR in % (Viola tricolor [9]; 5 g/ha): 80% | Post-emergence action against VIOTR in % (Viola tricolor [9]; 20 g/ha): 90% | Pre-emergence action against AVEFA (Avena fatua [10]; 80 g/ha): 90% | Post-emergence action against MATIN in % (Matricaria inodora [11]; 20 g/ha): 80% | Pre-emergence action against ALOMY (Alopecurus myosuroides [12]): 100% | Post-emergence action against SETVI in % (Setaria viridis [13]): 100% | Pre-emergence action against ABUTH (Abutilon theophrasti [14]; 20 g/ha): 100% | Pre-emergence action against ABUTH (Abutilon theophrasti [14]; 80 g/ha): 100% | Pre-emergence action against SETVI (Setaria viridis [15]; 80 g/ha): 100% | Post-emergence action against ECHCG in % (Echinochloa crus-galli [16]; 20 g/ha): 80% | Pre-emergence action against PHBPU (Pharbitis purpurea [17]; 80 g/ha): 80%

CCn1nnnc1NC(=O)c1ccc(C(F)(F)F)c(C(=O)N(C)CC(F)F)c1Cl [Example 2-128]
Post-emergence action against VERPE in % (Veronica persica [1]): 80% | Post-emergence action against ABUTH (Abutilon theophrasti [2]; 5 g/ha): 80% | Post-emergence action against ABUTH (Abutilon theophrasti [2]; 20 g/ha): 80% | Post-emergence action against PHBPU in % (Pharbitis purpurea [18]; 5 g/ha): 80% | Post-emergence action against PHBPU in % (Pharbitis purpurea [18]; 20 g/ha): 80% | Pre-emergence action against ECHCG (Echinochloa crus-galli [3]; 80 g/ha): 90% | Pre-emergence action against DIGSA (Digitaria sanguinalis; 20 g/ha): 90% | Pre-emergence action against DIGSA (Digitaria sanguinalis; 80 g/ha): 100% | Pre-emergence action against AMARE (Amaranthus retroflexus [5]; 20 g/ha): 100% | Pre-emergence action against AMARE (Amaranthus retroflexus [5]; 80 g/ha): 100% | Pre-emergence action against VERPE (Veronica persica [19]; 80 g/ha): 100% | Pre-emergence action against POLCO (Polygonum convolvulus; 80 g/ha): 100% | Pre-emergence action against MATIN (Matricaria inodora [6]; 20 g/ha): 100% | Pre-emergence action against MATIN (Matricaria inodora [6]; 80 g/ha): 100% | Post-emergence action against AVEFA in % (Avena fatua [20]; 20 g/ha): 80% | Pre-emergence action against VIOTR (Viola tricolor [8]; 20 g/ha): 100% | Pre-emergence action against VIOTR (Viola tricolor [8]; 80 g/ha): 100% | Pre-emergence action against AVEFA (Avena fatua [10]; 80 g/ha): 100% | Post-emergence action against MATIN in % (Matricaria inodora [11]; 5 g/ha): 80% | Post-emergence action against MATIN in % (Matricaria inodora [11]; 20 g/ha): 90% | Pre-emergence action against ALOMY (Alopecurus myosuroides [12]): 100% | Post-emergence action against SETVI in % (Setaria viridis [13]): 80% | Pre-emergence action against ABUTH (Abutilon theophrasti [14]; 80 g/ha): 100% | Pre-emergence action against SETVI (Setaria viridis [15]; 80 g/ha): 100% | Post-emergence action against ECHCG in % (Echinochloa crus-galli [16]; 20 g/ha): 80% | Pre-emergence action against PHBPU (Pharbitis purpurea [17]; 80 g/ha): 80%

CCCn1nnnc1NC(=O)c1ccc(C(F)(F)F)c(C(=O)n2cccn2)c1Cl [Example 3-153]
Post-emergence action against ABUTH (Abutilon theophrasti [2]; 5 g/ha): 90% | Post-emergence action against ABUTH (Abutilon theophrasti [2]; 20 g/ha): 90% | Post-emergence action against ABUTH (Abutilon theophrasti [2]; 80 g/ha): 90% | Post-emergence action against PHBPU in % (Pharbitis purpurea [18]; 5 g/ha): 80% | Post-emergence action against PHBPU in % (Pharbitis purpurea [18]; 20 g/ha): 80% | Post-emergence action against PHBPU in % (Pharbitis purpurea [18]; 80 g/ha): 90% | Pre-emergence action against ECHCG (Echinochloa crus-galli [3]; 80 g/ha): 90% | Pre-emergence action against ECHCG (Echinochloa crus-galli [3]; 320 g/ha): 100% | Pre-emergence action against AMARE (Amaranthus retroflexus [5]; 20 g/ha): 100% | Pre-emergence action against AMARE (Amaranthus retroflexus [5]; 80 g/ha): 100% | Pre-emergence action against AMARE (Amaranthus retroflexus [5]; 320 g/ha): 100% | Pre-emergence action against VERPE (Veronica persica [19]; 320 g/ha): 90% | Pre-emergence action against POLCO (Polygonum convolvulus; 320 g/ha): 90% | Pre-emergence action against MATIN (Matricaria inodora [6]; 20 g/ha): 80% | Pre-emergence action against MATIN (Matricaria inodora [6]; 80 g/ha): 100% | Pre-emergence action against MATIN (Matricaria inodora [6]; 320 g/ha): 100% | Post-emergence action against AMARE in % (Amaranthus retroflexus [7]; 5 g/ha): 90% | Post-emergence action against AMARE in % (Amaranthus retroflexus [7]; 20 g/ha): 90% | Post-emergence action against AMARE in % (Amaranthus retroflexus [7]; 80 g/ha): 100% | Post-emergence action against AVEFA in % (Avena fatua [20]; 80 g/ha): 80% | Pre-emergence action against VIOTR (Viola tricolor [8]; 20 g/ha): 90% | Pre-emergence action against VIOTR (Viola tricolor [8]; 80 g/ha): 100% | Pre-emergence action against VIOTR (Viola tricolor [8]; 320 g/ha): 100% | Post-emergence action against VIOTR in % (Viola tricolor [9]; 80 g/ha): 90% | Pre-emergence action against AVEFA (Avena fatua [10]; 320 g/ha): 90% | Post-emergence action against MATIN in % (Matricaria inodora [11]; 5 g/ha): 80% | Post-emergence action against MATIN in % (Matricaria inodora [11]; 20 g/ha): 90% | Post-emergence action against MATIN in % (Matricaria inodora [11]; 80 g/ha): 100% | Pre-emergence action against STEME (Stellaria media [21]; 20 g/ha): 90% | Pre-emergence action against STEME (Stellaria media [21]; 80 g/ha): 100% | Pre-emergence action against STEME (Stellaria media [21]; 320 g/ha): 100% | Pre-emergence action against ABUTH (Abutilon theophrasti [14]; 20 g/ha): 100% | Pre-emergence action against ABUTH (Abutilon theophrasti [14]; 80 g/ha): 100% | Pre-emergence action against ABUTH (Abutilon theophrasti [14]; Dosage column 320 g/ha (heading prints 3200 g/ha)): 100% | Pre-emergence action against SETVI (Setaria viridis [15]; 20 g/ha): 90% | Pre-emergence action against SETVI (Setaria viridis [15]; 80 g/ha): 100% | Pre-emergence action against SETVI (Setaria viridis [15]; 320 g/ha): 100% | Pre-emergence action against CYPES (Cyperus esculentus; 80 g/ha): 80% | Pre-emergence action against CYPES (Cyperus esculentus; 320 g/ha): 80% | Post-emergence action against STEME in % (Stellaria media [22]; 5 g/ha): 100% | Post-emergence action against STEME in % (Stellaria media [22]; 20 g/ha): 100% | Post-emergence action against STEME in % (Stellaria media [22]; 80 g/ha): 100% | Post-emergence action against ECHCG in % (Echinochloa crus-galli [16]; 20 g/ha): 80% | Post-emergence action against ECHCG in % (Echinochloa crus-galli [16]; 80 g/ha): 100% | Pre-emergence action against PHBPU (Pharbitis purpurea [17]; 320 g/ha): 100%

Source: US12599136B2, “Substituted isophthalic acid diamides and their use as herbicides” (Bayer Aktiengesellschaft, priority 2020, dated 2026)
